A short description of data set [1]: Loss of activity of aqueous solution on standing under ambient conditions. It counts as physicochemical. Conditions: fresh aqueous solution, 1 mg per ml, pH of about 8, standing for as little as 30 minutes. The source says: In vitro study of the mechanism by which SQ14225 and its analogs act to inhibit ACE has been somewhat hampered by the instability of these molecules under ambient conditions.

For a further data set, the target named is T1, Human plasma ACE (Homo sapiens, UniProt P12821).
T1 construct: Human plasma ACE was assayed in 0.05 M Hepes buffer, pH 8.0; from tissue; host or cells: human plasma
T1 sequence (P12821 30-1232 limits assumed): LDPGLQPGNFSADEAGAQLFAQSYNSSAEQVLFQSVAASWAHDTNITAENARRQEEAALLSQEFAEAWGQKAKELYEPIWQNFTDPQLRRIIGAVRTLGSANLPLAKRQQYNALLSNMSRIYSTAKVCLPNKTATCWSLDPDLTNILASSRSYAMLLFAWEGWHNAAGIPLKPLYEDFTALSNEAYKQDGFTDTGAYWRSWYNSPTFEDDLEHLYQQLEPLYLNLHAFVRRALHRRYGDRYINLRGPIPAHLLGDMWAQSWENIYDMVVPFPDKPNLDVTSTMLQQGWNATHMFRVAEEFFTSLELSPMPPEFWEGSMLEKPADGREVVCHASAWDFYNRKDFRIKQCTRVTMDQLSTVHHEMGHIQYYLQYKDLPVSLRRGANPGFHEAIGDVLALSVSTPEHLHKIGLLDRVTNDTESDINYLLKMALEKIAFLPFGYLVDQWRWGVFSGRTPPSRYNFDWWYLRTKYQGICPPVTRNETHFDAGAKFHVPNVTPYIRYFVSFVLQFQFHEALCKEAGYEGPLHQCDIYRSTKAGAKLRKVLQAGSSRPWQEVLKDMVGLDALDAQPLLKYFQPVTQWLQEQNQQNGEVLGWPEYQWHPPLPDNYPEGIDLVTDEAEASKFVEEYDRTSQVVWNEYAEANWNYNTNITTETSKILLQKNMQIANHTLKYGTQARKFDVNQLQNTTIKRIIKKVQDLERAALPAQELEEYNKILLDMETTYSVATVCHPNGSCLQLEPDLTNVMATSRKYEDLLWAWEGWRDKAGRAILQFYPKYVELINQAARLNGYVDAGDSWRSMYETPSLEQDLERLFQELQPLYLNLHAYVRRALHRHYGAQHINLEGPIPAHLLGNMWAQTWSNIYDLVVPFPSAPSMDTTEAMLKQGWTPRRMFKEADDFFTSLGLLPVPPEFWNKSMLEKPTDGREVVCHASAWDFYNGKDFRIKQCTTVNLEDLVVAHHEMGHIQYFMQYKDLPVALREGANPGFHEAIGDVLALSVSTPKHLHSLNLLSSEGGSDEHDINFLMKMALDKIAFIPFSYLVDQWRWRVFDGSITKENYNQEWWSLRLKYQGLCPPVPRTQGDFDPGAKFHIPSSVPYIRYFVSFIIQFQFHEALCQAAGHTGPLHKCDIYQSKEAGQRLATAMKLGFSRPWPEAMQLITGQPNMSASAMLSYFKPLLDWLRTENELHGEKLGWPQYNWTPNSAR
Kind of data set: Inhibitory potency in vitro: ACE assay with [3H]hippuryl-His-Leu substrate. Type of data set: biochemical. Conditions: hippuryl-His-Leu 1 x 10^-4 M, 0.05 M Hepes buffer pH 8.0, 15 minutes at 37°C, read-out: I50. How it is done: The inhibitory potency of several compounds in vitro was measured in the following assay. Human plasma ACE was assayed in 0.05 M Hepes buffer, pH 8.0 containing 0.1 M NaCl and 0.75 M Na2SO4. The substrate employed was hippuryl-His-Leu at a final concentration-of 1 x 10^-4 M, (Km = 2 x 10^-4 M), together with about 130,000 cpm/50 µl of [^3Hlhippuryl-His-Leu (25 Ci/mmole). Enzyme was diluted in the above buffer such that 40 ul of buffered enzyme was capable of hydrolyzing 13% of substrate in a 15 minute incubation at 37°C. To initiate the assay, 40 µl of enzyme and 10 µl of buffer or inhibitor dissolved in buffer were preincubated for two minutes at 37°C. Substrate, 50 µl, was then added to initiate reaction and the solution was incubated for 15 minutes at 37°C. To terminate the reaction, 1 ml of 0:1 M HC1 was added, following which 1 ml of ethyl acetate was added. The mixture was
An aliquot, 500 ul. of the ethyl acetate layer was transferred to a liquid scintillation vial containing 10 ml of Riafluor, trademark New England Nuclear Corporation, Boston, Massachusetts. For determination of I50 values, enzyme activity in the presence of inhibitor at a series of different concentrations was compared to activity in the absence of inhibitor. A plot of log inhibitor concentration versus percent inhibition yielded the I50 value; the concentration of inhibitor required to reduce enzymic activity by 50%.

The next data set deals with Rats. In words: Intravenous effectiveness: blood pressure response to angiotensin I in anesthetized rats. As to conditions: 20 µmole/kg intravenously. It counts as in vivo. On the procedure: Rats (190-290 g body weight) were fasted overnight and then anesthetized with intraperitoneal pentobarbital, 50-60 mg/kg. Tracheostomy was performed and the animals were ventilated mechanically. A cannula was inserted into a femoral vein for injection of angiotensin I, and a second cannula was inserted into a common carotid artery for direct measurement of arterial blood pressure. Heparin, 1,000 units, was injected via the femoral vein to prevent coagulation. Blood pressure was measured with a pressure transducer connected to a polygraph. The rats were injected with […] of angiotensin I in 20 pl of 0.9 g % NaCl; an amount of angiotensin I sufficient to raise mean arterial blood pressure by approximately 40 mm Hg. After the responsiveness of a given rat to angiotensin I was established, the named compound at 20 µmole/kg (drug dissolved in 0.15 ml of H20 plus 10 µl of 1 N NaHC03), was given intravenously. At timed intervals, the effects of 400 ng/kg of angiotensin I on mean arterial blood pressure were tested.

Turning to `C[C@H](CS)C(=O)N1CCC[C@H]1C(=O)O` [SQ14225], the “activity of aqueous solution upon standing” value in data set [1] is “substantially less active”.
Regarding `CCOC(=O)C(C)N[C@@H](C)C(=O)N1CCC[C@H]1C(=O)O` (stereo partly drawn) [N-(1-ethoxycarbonylethyl)-L-alanyl-L-proline], the IC50 on Human plasma ACE was 60 nM.
Same read-out and setting: as for `CC(SC(C)C(=O)N1CCC[C@H]1C(=O)O)C(=O)O` (stereo partly drawn) [N-[2-(1-carboxyethylthio)-propanoyl]-L-proline], the figure is 400 nM.
Same read-out and setting: as for `CC(N[C@@H](C)C(=O)N1CCC[C@H]1C(=O)O)C(=O)O` (stereo partly drawn) [N-(1-carboxyethyl)-L-alanyl-L-proline, reference compound], the figure is 8 nM.
For the compound `CC(SC[C@@H](C)C(=O)N1CCC[C@H]1C(=O)O)C(=O)O` (stereo partly drawn) [N-[3-(1-carboxyethylthio)-2-D-methylpropanoyl]-L-proline], the “Blood Pressure Reponse to 400 ng/kg of Angiotensin I (% of Control)” value in the data set with Rats (8 minutes after IV administration) is on record as 62.5 % of Control; in the data set on Rats (15 minutes after IV administration) it was 37.5 % of Control; with Rats (21 minutes after IV administration) it was 37.5 % of Control; with Rats (+2 minutes after IV administration), 67.5 % of Control. Also, the IC50 at Human plasma ACE stood at 1500 nM.
On to `CC1CC(SC(C)C(=O)N2CCC[C@H]2C(=O)O)C(=O)O1` (stereo partly drawn) [N-[2-(tetrahydro-5-methyl-2-furanone-3-thio)-propanoyl]-L-proline], for which the IC50 on Human plasma ACE amounted to 130 nM.
Same read-out and setting: in the case of `CC(O)CC(SC(C)C(=O)N1CCC[C@H]1C(=O)O)C(=O)O` (stereo partly drawn) [N-[2-(1-carboxy-3-hydroxy-butylthio)-propanoyl]-L-proline] it was 30 nM.

The record behind these values is patent EP0048159A2, “Novel carboxyalkyl peptides and thioethers and ethers of peptides as antihypertensive agents” (UNIVERSITY OF MIAMI, priority 1980, dated 1982).
